Columns and labels:
[1] = Intrinsic clearance in rat liver microsomes at 1 uM after 30 mins in presence of NADPH; assay type: ADME; settings: read-out: CLH
[2] = target: T1, Hexokinase-4 (Homo sapiens, UniProt P35557); assay: Inhibition of fluorescein-labeled human GK interaction with biotin-labeled human GKRP compound incubated for 20 mins prior to addition of fluorescein-labeled GK measured after 2 to 4 hrs by AlphaScreen assay
T1 sequence (P35557 whole entry): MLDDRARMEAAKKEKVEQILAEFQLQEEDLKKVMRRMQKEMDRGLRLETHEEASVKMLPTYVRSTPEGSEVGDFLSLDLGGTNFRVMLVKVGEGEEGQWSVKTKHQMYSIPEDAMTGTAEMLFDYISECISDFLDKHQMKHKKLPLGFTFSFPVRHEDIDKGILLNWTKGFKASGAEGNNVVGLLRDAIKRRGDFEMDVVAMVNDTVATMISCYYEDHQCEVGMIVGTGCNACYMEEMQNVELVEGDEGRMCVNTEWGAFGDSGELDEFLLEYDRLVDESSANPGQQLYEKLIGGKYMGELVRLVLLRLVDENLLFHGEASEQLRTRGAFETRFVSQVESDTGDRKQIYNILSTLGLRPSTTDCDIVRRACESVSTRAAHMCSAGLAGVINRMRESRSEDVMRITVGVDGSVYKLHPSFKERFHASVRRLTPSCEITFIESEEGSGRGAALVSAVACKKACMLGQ

[3] = Intrinsic clearance in human liver microsomes at 1 uM after 30 mins in presence of NADPH; assay type: ADME; settings: read-out: CLH

## Nc1ccc(S(=O)(=O)N2CCN(c3ncc(C(O)(C(F)(F)F)C(F)(F)F)cc3-c3ccc(F)cc3)CC2)cn1
[1]
  microsomal CLint at 1 µM: 40 µL/min/mg
[2]
  IC50: 11 nM
[3]
  microsomal CLint at 1 µM: < 14 µL/min/mg

## Nc1ccc(S(=O)(=O)N2CCN(c3ccc(C(O)(C(F)(F)F)C(F)(F)F)cn3)CC2)cn1
[1]
  microsomal CLint at 1 µM: < 14 µL/min/mg
[2]
  IC50: 176 nM
[3]
  microsomal CLint at 1 µM: < 14 µL/min/mg

## Nc1ccc(S(=O)(=O)N2CCN(c3ncc(C(O)(C(F)(F)F)C(F)(F)F)cc3Cl)CC2)cn1
[1]
  microsomal CLint at 1 µM: 26 µL/min/mg
[2]
  IC50: 201 nM
[3]
  microsomal CLint at 1 µM: < 14 µL/min/mg

## Nc1ccc(S(=O)(=O)N2CCN(c3ncc(C(O)(C(F)(F)F)C(F)(F)F)cc3Br)CC2)cn1
[1]
  microsomal CLint at 1 µM: 32 µL/min/mg
[2]
  IC50: 112 nM
[3]
  microsomal CLint at 1 µM: < 14 µL/min/mg

## COc1cc(C(O)(C(F)(F)F)C(F)(F)F)cnc1N1CCN(S(=O)(=O)c2ccc(N)nc2)CC1
[1]
  microsomal CLint at 1 µM: < 14 µL/min/mg
[2]
  IC50: 1110 nM
[3]
  microsomal CLint at 1 µM: < 14 µL/min/mg

## Nc1ccc(S(=O)(=O)N2CCN(c3ncc(C(O)(C(F)(F)F)C(F)(F)F)cc3C3CC3)CC2)cn1
[1]
  microsomal CLint at 1 µM: 27 µL/min/mg
[2]
  IC50: 601 nM
[3]
  microsomal CLint at 1 µM: 38 µL/min/mg

## Nc1ccc(S(=O)(=O)N2CCN(c3ncc(C(O)(C(F)(F)F)C(F)(F)F)cc3C#CC3CC3)CC2)cn1
[1]
  microsomal CLint at 1 µM: 67 µL/min/mg
[2]
  IC50: 33 nM
[3]
  microsomal CLint at 1 µM: < 14 µL/min/mg

## Nc1ccc(S(=O)(=O)N2CCN(c3ncc(C(O)(C(F)(F)F)C(F)(F)F)cc3C#CCO)CC2)cn1
[1]
  microsomal CLint at 1 µM: 65 µL/min/mg
[2]
  IC50: 14 nM
[3]
  microsomal CLint at 1 µM: < 14 µL/min/mg

## COCC#Cc1cc(C(O)(C(F)(F)F)C(F)(F)F)cnc1N1CCN(S(=O)(=O)c2ccc(N)nc2)CC1
[1]
  microsomal CLint at 1 µM: 399 µL/min/mg
[2]
  IC50: 5 nM
[3]
  microsomal CLint at 1 µM: 15 µL/min/mg

## CC(C)(O)C#Cc1cc(C(O)(C(F)(F)F)C(F)(F)F)cnc1N1CCN(S(=O)(=O)c2ccc(N)nc2)CC1
[1]
  microsomal CLint at 1 µM: 16 µL/min/mg
[2]
  IC50: 49 nM
[3]
  microsomal CLint at 1 µM: < 14 µL/min/mg

## Nc1ccc(S(=O)(=O)N2CCN(c3ncc(C(O)(C(F)(F)F)C(F)(F)F)cc3C#CCCO)CC2)cn1
[1]
  microsomal CLint at 1 µM: 68 µL/min/mg
[2]
  IC50: 17 nM
[3]
  microsomal CLint at 1 µM: < 14 µL/min/mg

## Nc1ccc(S(=O)(=O)N2CCN(c3ncc(C(O)(C(F)(F)F)C(F)(F)F)cc3-c3cc[nH]n3)CC2)cn1
[1]
  microsomal CLint at 1 µM: 20 µL/min/mg
[2]
  IC50: 201 nM
[3]
  microsomal CLint at 1 µM: < 14 µL/min/mg

## Cn1cc(-c2cc(C(O)(C(F)(F)F)C(F)(F)F)cnc2N2CCN(S(=O)(=O)c3ccc(N)nc3)CC2)c(C(F)(F)F)n1
[1]
  microsomal CLint at 1 µM: 121 µL/min/mg
[2]
  IC50: 30000 nM
[3]
  microsomal CLint at 1 µM: 50 µL/min/mg

## Nc1ccc(S(=O)(=O)N2CCN(c3ncc(C(O)(C(F)(F)F)C(F)(F)F)cc3-c3ccoc3)CC2)cn1
[1]
  microsomal CLint at 1 µM: 57 µL/min/mg
[2]
  IC50: 19 nM
[3]
  microsomal CLint at 1 µM: < 14 µL/min/mg

## Cc1csc(-c2cc(C(O)(C(F)(F)F)C(F)(F)F)cnc2N2CCN(S(=O)(=O)c3ccc(N)nc3)CC2)c1
[1]
  microsomal CLint at 1 µM: 399 µL/min/mg
[2]
  IC50: 5 nM
[3]
  microsomal CLint at 1 µM: 29 µL/min/mg

## Nc1ccc(S(=O)(=O)N2CCN(c3ncc(C(O)(C(F)(F)F)C(F)(F)F)cc3-c3ccccc3)CC2)cn1
[1]
  microsomal CLint at 1 µM: 49 µL/min/mg
[2]
  IC50: 7 nM
[3]
  microsomal CLint at 1 µM: < 14 µL/min/mg

## Nc1ccc(S(=O)(=O)N2CCN(c3ncc(C(O)(C(F)(F)F)C(F)(F)F)cc3-c3ccccc3F)CC2)cn1
[1]
  microsomal CLint at 1 µM: 47 µL/min/mg
[2]
  IC50: 7 nM
[3]
  microsomal CLint at 1 µM: < 14 µL/min/mg

## Nc1ccc(S(=O)(=O)N2CCN(c3ncc(C(O)(C(F)(F)F)C(F)(F)F)cc3-c3cccc(F)c3)CC2)cn1
[1]
  microsomal CLint at 1 µM: 52 µL/min/mg
[2]
  IC50: 8 nM
[3]
  microsomal CLint at 1 µM: 25 µL/min/mg

## Nc1ccc(S(=O)(=O)N2CCN(c3ncc(C(O)(C(F)(F)F)C(F)(F)F)cc3-c3ccccc3O)CC2)cn1
[1]
  microsomal CLint at 1 µM: 125 µL/min/mg
[2]
  IC50: 6 nM
[3]
  microsomal CLint at 1 µM: 22 µL/min/mg

## CS(=O)(=O)Nc1cccc(-c2cc(C(O)(C(F)(F)F)C(F)(F)F)cnc2N2CCN(S(=O)(=O)c3ccc(N)nc3)CC2)c1
[1]
  microsomal CLint at 1 µM: 81 µL/min/mg
[2]
  IC50: 309 nM
[3]
  microsomal CLint at 1 µM: 40 µL/min/mg

## NC(=O)c1cccc(-c2cc(C(O)(C(F)(F)F)C(F)(F)F)cnc2N2CCN(S(=O)(=O)c3ccc(N)nc3)CC2)c1
[1]
  microsomal CLint at 1 µM: 63 µL/min/mg
[2]
  IC50: 50 nM
[3]
  microsomal CLint at 1 µM: 17 µL/min/mg

## CS(=O)(=O)c1ccc(-c2cc(C(O)(C(F)(F)F)C(F)(F)F)cnc2N2CCN(S(=O)(=O)c3ccc(N)nc3)CC2)cc1
[1]
  microsomal CLint at 1 µM: 103 µL/min/mg
[2]
  IC50: 42 nM
[3]
  microsomal CLint at 1 µM: 32 µL/min/mg

## Nc1ccc(S(=O)(=O)N2CCN(c3ncc(C(O)(C(F)(F)F)C(F)(F)F)cc3-c3ccncc3)CC2)cn1
[1]
  microsomal CLint at 1 µM: 31 µL/min/mg
[2]
  IC50: 21 nM
[3]
  microsomal CLint at 1 µM: 15 µL/min/mg

## Nc1ccc(S(=O)(=O)N2CCN(c3ncc(C(O)(C(F)(F)F)C(F)(F)F)cc3-c3cnccc3F)CC2)cn1
[1]
  microsomal CLint at 1 µM: 22 µL/min/mg
[2]
  IC50: 24 nM
[3]
  microsomal CLint at 1 µM: 17 µL/min/mg

## Nc1ccc(S(=O)(=O)N2CCN(c3ncc(C(O)(C(F)(F)F)C(F)(F)F)cc3-c3cncc(F)c3)CC2)cn1
[1]
  microsomal CLint at 1 µM: 19 µL/min/mg
[2]
  IC50: 11 nM
[3]
  microsomal CLint at 1 µM: 24 µL/min/mg

## Cc1cncc(-c2cc(C(O)(C(F)(F)F)C(F)(F)F)cnc2N2CCN(S(=O)(=O)c3ccc(N)nc3)CC2)c1
[1]
  microsomal CLint at 1 µM: 259 µL/min/mg
[2]
  IC50: 29 nM
[3]
  microsomal CLint at 1 µM: 37 µL/min/mg

## Cc1ccc(-c2cc(C(O)(C(F)(F)F)C(F)(F)F)cnc2N2CCN(S(=O)(=O)c3ccc(N)nc3)CC2)cn1
[1]
  microsomal CLint at 1 µM: 182 µL/min/mg
[2]
  IC50: 40 nM
[3]
  microsomal CLint at 1 µM: 43 µL/min/mg

## COc1ccc(-c2cc(C(O)(C(F)(F)F)C(F)(F)F)cnc2N2CCN(S(=O)(=O)c3ccc(N)nc3)CC2)cn1
[1]
  microsomal CLint at 1 µM: 265 µL/min/mg
[2]
  IC50: 16 nM
[3]
  microsomal CLint at 1 µM: 25 µL/min/mg

## COc1cncc(-c2cc(C(O)(C(F)(F)F)C(F)(F)F)cnc2N2CCN(S(=O)(=O)c3ccc(N)nc3)CC2)c1
[1]
  microsomal CLint at 1 µM: 58 µL/min/mg
[2]
  IC50: 17 nM
[3]
  microsomal CLint at 1 µM: 44 µL/min/mg

## Nc1ccc(S(=O)(=O)N2CCN(c3ncc(C(O)(C(F)(F)F)C(F)(F)F)cc3-c3ccc4sccc4c3)CC2)cn1
[1]
  microsomal CLint at 1 µM: 487 µL/min/mg
[2]
  IC50: 47 nM
[3]
  microsomal CLint at 1 µM: 48 µL/min/mg

## Nc1ccc(S(=O)(=O)N2CCN(c3ncc(C(O)(C(F)(F)F)C(F)(F)F)cc3-c3ccc4scnc4c3)CC2)cn1
[1]
  microsomal CLint at 1 µM: 147 µL/min/mg
[2]
  IC50: 35 nM
[3]
  microsomal CLint at 1 µM: 39 µL/min/mg

## Nc1ccc(S(=O)(=O)N2CCN(c3ncc(C(O)(C(F)(F)F)C(F)(F)F)cc3-c3ccc4ocnc4c3)CC2)cn1
[1]
  microsomal CLint at 1 µM: 120 µL/min/mg
[2]
  IC50: 20 nM
[3]
  microsomal CLint at 1 µM: < 14 µL/min/mg

## Cc1nc2cc(-c3cc(C(O)(C(F)(F)F)C(F)(F)F)cnc3N3CCN(S(=O)(=O)c4ccc(N)nc4)CC3)ccc2o1
[1]
  microsomal CLint at 1 µM: 99 µL/min/mg
[2]
  IC50: 15 nM
[3]
  microsomal CLint at 1 µM: < 14 µL/min/mg

## CN1C(=O)Cc2cc(-c3cc(C(O)(C(F)(F)F)C(F)(F)F)cnc3N3CCN(S(=O)(=O)c4ccc(N)nc4)CC3)ccc21
[1]
  microsomal CLint at 1 µM: 221 µL/min/mg
[2]
  IC50: 20 nM
[3]
  microsomal CLint at 1 µM: 15 µL/min/mg

## Nc1ccc(S(=O)(=O)N2CCN(c3ncc(C(O)(C(F)(F)F)C(F)(F)F)cc3-c3ccc4c(c3)CC(=O)N4)CC2)cn1
[1]
  microsomal CLint at 1 µM: 119 µL/min/mg
[2]
  IC50: 33 nM
[3]
  microsomal CLint at 1 µM: < 14 µL/min/mg

## Nc1ccc(S(=O)(=O)N2CCN(c3ncc(C(O)(C(F)(F)F)C(F)(F)F)cc3-c3ccc4[nH]ncc4c3)CC2)cn1
[1]
  microsomal CLint at 1 µM: 88 µL/min/mg
[2]
  IC50: 60 nM
[3]
  microsomal CLint at 1 µM: 27 µL/min/mg

## Nc1ccc(S(=O)(=O)N2CCN(c3ncc(C(O)(C(F)(F)F)C(F)(F)F)cc3-c3cccc4[nH]ncc34)CC2)cn1
[1]
  microsomal CLint at 1 µM: 93 µL/min/mg
[2]
  IC50: 1950 nM
[3]
  microsomal CLint at 1 µM: 42 µL/min/mg

## Nc1ccc(S(=O)(=O)N2CCN(c3ncc(C(O)(C(F)(F)F)C(F)(F)F)cc3-c3cc4ccccc4[nH]3)CC2)cn1
[1]
  microsomal CLint at 1 µM: 146 µL/min/mg
[2]
  IC50: 27 nM
[3]
  microsomal CLint at 1 µM: < 14 µL/min/mg

## Nc1ccc(S(=O)(=O)N2CCN(c3ncc(C(O)(C(F)(F)F)C(F)(F)F)cc3-c3cc4ccccc4s3)CC2)cn1
[1]
  microsomal CLint at 1 µM: 315 µL/min/mg
[2]
  IC50: 48 nM
[3]
  microsomal CLint at 1 µM: < 14 µL/min/mg
